Measurements as given in US11254686B1 (Corvus Pharmaceuticals, Inc., priority 2017, dated 2022).

What was measured:
[1] = target: T1, adenosine A1 receptor (Homo sapiens (Human), UniProt P30542); test: A1 cAMP IC50 assay (Table 1); assay type: biochemical
[2] = Hepatocyte (Hep) intrinsic clearance, rat; assay type: in vitro ADME; settings: hepatocytes
[3] = Liver microsome (LM) intrinsic clearance, rat; assay type: in vitro ADME
[4] = Hepatocyte (Hep) intrinsic clearance, human; assay type: in vitro ADME; settings: hepatocytes
[5] = Hepatocyte (Hep) intrinsic clearance, dog; assay type: in vitro ADME; settings: hepatocytes
[6] = Hepatocyte (Hep) intrinsic clearance, monkey; assay type: in vitro ADME; settings: hepatocytes
[7] = target: adenosine A2B receptor (Homo sapiens (Human), UniProt P29275); test: Adenosine receptor activity assay (Table 1), A2B activity; assay type: biochemical; settings: for Ratio: A2A activity to A2B activity (A2A/A2B); for IC50: read-out: Ave A2B cAMP IC50
[8] = target: CYP2D6 (Homo sapiens (Human), UniProt P10635); test: CYP450 inhibition at 10 μM, CYP2D6; assay type: in vitro ADME; settings: read-out: CYP 450 % INH @ 10 μM
[9] = Liver microsome (LM) intrinsic clearance, human; assay type: in vitro ADME
[10] = target: T2, adenosine A3 receptor (Homo sapiens (Human), UniProt P0DMS8); test: A3 cAMP IC50 assay (Table 1); assay type: biochemical
[11] = target: adenosine A2A receptor (Homo sapiens (Human), UniProt P29274); test: Adenosine receptor activity assay (Table 1), A2A activity; assay type: biochemical; settings: read-out: Ave A2A cAMP IC50
[12] = target: CYP3A4 (Homo sapiens (Human), UniProt P08684); test: CYP450 inhibition at 10 μM, CYP3A4; assay type: in vitro ADME; settings: human, 10 μM, read-out: CYP 450 % INH @ 10 μM
[13] = target: T1, adenosine A1 receptor; test: Adenosine receptor activity assay (Table 1), A1 cAMP; assay type: cell-based
[14] = target: T2, adenosine A3 receptor; test: Adenosine receptor activity assay (Table 1), A3 cAMP; assay type: cell-based
[15] = Liver microsome intrinsic clearance, human; assay type: in vitro ADME
[16] = Liver microsome intrinsic clearance, rat; assay type: in vitro ADME
[17] = Hepatocyte intrinsic clearance, rat; assay type: in vitro ADME
[18] = tested on: CYP 450; test: CYP450 inhibition at 10 μM; assay type: in vitro ADME
[19] = Hepatocyte intrinsic clearance, human; assay type: in vitro ADME

T1 sequence (P30542 whole entry): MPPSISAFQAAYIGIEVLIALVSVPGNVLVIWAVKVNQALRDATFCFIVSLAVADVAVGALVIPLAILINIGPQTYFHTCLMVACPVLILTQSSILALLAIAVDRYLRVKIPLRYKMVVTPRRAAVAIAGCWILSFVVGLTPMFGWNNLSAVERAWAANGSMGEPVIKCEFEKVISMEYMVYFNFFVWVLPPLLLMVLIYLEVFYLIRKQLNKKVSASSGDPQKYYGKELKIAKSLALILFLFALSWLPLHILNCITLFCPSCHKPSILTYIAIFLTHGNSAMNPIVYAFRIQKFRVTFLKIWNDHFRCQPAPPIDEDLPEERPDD
Chain of adenosine A2A receptor (P29274 whole entry): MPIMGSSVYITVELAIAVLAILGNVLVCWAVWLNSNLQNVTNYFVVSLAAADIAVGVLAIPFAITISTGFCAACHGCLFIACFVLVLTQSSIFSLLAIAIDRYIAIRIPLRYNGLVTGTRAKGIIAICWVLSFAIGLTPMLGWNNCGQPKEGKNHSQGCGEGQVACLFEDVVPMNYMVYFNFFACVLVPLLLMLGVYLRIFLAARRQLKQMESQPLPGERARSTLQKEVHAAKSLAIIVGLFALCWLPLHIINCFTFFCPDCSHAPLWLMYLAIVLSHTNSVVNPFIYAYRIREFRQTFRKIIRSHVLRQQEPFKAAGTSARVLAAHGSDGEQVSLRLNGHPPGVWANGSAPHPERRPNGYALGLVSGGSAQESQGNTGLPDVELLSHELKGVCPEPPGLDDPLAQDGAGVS
T2 sequence (P0DMS8 whole entry): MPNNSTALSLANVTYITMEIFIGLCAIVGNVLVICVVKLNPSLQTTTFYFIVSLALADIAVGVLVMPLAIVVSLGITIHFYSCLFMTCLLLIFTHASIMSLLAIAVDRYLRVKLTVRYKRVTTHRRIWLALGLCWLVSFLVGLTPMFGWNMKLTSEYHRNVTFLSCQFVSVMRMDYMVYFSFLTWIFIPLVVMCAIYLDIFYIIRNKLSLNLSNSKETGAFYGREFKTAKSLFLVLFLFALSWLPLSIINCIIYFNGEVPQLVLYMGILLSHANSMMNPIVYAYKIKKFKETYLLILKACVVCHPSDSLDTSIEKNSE
Chain of CYP2D6 (P10635 whole entry): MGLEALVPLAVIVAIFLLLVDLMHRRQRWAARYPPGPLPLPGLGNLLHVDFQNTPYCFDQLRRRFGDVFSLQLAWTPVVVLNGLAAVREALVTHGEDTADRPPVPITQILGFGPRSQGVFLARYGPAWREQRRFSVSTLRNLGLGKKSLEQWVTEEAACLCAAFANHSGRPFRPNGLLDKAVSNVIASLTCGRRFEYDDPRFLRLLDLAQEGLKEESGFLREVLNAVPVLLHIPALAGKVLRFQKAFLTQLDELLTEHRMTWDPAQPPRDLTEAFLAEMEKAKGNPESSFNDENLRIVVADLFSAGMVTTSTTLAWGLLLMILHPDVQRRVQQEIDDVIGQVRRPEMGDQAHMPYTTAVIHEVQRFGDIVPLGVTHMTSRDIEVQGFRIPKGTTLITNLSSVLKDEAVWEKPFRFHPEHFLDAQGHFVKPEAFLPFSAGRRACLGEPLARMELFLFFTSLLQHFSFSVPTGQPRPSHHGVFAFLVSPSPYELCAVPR
Chain of adenosine A2B receptor (P29275 whole entry): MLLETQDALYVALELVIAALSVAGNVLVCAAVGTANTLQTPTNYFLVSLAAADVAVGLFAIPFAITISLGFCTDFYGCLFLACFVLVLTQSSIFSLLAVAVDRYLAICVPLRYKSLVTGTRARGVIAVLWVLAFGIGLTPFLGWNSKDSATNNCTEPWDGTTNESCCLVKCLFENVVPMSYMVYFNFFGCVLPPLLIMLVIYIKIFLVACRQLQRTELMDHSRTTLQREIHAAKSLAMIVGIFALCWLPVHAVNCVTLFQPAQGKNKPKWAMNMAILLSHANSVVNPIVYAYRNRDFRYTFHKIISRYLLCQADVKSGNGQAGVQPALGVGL
Chain of CYP3A4 (P08684 whole entry): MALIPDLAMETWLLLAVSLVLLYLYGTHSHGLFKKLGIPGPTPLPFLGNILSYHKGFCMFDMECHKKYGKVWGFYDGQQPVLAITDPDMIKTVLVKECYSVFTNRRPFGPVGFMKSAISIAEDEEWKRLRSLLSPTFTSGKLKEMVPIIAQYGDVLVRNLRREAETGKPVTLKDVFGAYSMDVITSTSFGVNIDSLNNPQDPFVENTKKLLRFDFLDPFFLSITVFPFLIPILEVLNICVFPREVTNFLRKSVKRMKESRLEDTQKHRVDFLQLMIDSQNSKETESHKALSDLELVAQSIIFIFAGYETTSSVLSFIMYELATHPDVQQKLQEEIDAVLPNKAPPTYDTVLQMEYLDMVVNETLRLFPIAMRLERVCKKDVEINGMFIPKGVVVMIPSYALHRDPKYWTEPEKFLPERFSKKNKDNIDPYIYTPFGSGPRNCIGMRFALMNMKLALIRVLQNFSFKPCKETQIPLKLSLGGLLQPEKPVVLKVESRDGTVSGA

Compound | IC50 [1] [nM] | hepatocyte CLint [2] [µL/min/1e6 cells] | LM CLint [3] [μL/min/mg/protein] | hepatocyte CLint [4] [µL/min/1e6 cells] | hepatocyte CLint [5] [µL/min/1e6 cells] | hepatocyte CLint [6] [µL/min/1e6 cells] | Ratio [7] | IC50 [7] [nM] | inhibition at 10 µM [8] [%] | LM CLint [9] [μL/min/mg/protein] | IC50 [10] [nM] | IC50 [11] [nM] | inhibition at 10 µM [12] [%] | IC50 [13] [nM] | IC50 [14] [nM] | LM CLint [15] [μL/min/mg/protein] | LM CLint [16] [μL/min/mg/protein] | Hep CLint [17] [mL/min/10^6 cells] | CYP 450 % INH @ 10 μM [18] [%] | Hep CLint [19] [mL/min/10^6 cells]
C[C@H](Nc1nc(C(=O)N2CCCC2)c2sccc2n1)c1ccccn1 [Example Z10, (S)-(2-((1-(Pyridin-2-yl)ethyl)amino)thieno[3,2-d]pyrimidin-4-yl)(pyrrolidin-1-yl)methanone] | > 500 | 26.7 | 15.05 | 6.53 | 46.1 | 17.9 | 7.99 | < 10 | 8 | 16.29 | > 500 | 50 to 100 | 0 | – | – | – | – | – | – | –
C[C@H](Nc1nc(C(=O)N2CC[C@H](O)C2)c2sccc2n1)c1cccnc1 [Example Z28, ((S)-3-Hydroxypyrrolidin-1-yl)(2-(((S)-1-(pyridin-3-yl)ethyl)amino)thieno[3,2-d]pyrimidin-4-yl)methanone] | > 500 | 34.7 | 9.33 | 3.48 | 2.59 | 0.62 | 39.41 | 50 to 100 | 11 | 4.55 | > 500 | > 500 | 35 | – | – | – | – | – | – | –
C[C@H](Nc1nc(C(=O)N2CC[C@@H](F)C2)c2sccc2n1)c1ccccn1 [Example Z52, ((R)-3-Fluoropyrrolidin-1-yl)(2-(((S)-1-(pyridin-2-yl)ethyl)amino)thieno[3,2-d]pyrimidin-4-yl)methanone] | > 500 | 45.3 | 11.87 | 12.7 | 41.7 | 18.7 | 5.74 | < 10 | 0 | 11.20 | > 500 | 10 to 50 | 7 | – | – | – | – | – | – | –
C[C@H](Nc1nc(C(=O)N2CC[C@H](O)C2)c2sccc2n1)c1ccccn1 [Example Z58, ((S)-3-Hydroxypyrrolidin-1-yl)(2-(((S)-1-(pyridin-2-yl)ethyl)amino)thieno[3,2-d]pyrimidin-4-yl)methanone] | > 500 | 4.46 | 0.0 | 2.21 | 1.73 | 0.19 | 15.14 | 50 to 100 | 10 | 5.60 | > 500 | > 500 | 0 | – | – | – | – | – | – | –
C[C@H](Nc1nc(C(=O)N2CC[C@@H](O)C2)c2sc(C(F)(F)F)cc2n1)c1cncc(F)c1 [Example Z391, (2-(((S)-1-(5-Fluoropyridin-3-yl)ethyl)amino)-6-(trifluoromethyl)thieno[3,2-d]pyrimidin-4-yl)((R)-3-hydroxypyrrolidin-1-yl)methanone] | – | – | – | – | – | – | 288.73 | < 10 | – | – | – | > 500 | – | > 500 | > 500 | 12.73 | 7.73 | – | – | –
(6-Amino-2-(((S)-1-(5-fluoropyridin-3-yl)ethyl)amino)thieno[3,2-d]pyrimidin-4-yl)((S)-3-hydroxypyrrolidin-1-yl)methanone [Example Z212] | – | – | – | – | – | – | 149.76 | < 10 | – | – | – | > 500 | – | > 500 | > 500 | – | – | 5.95 | 19.6 | 1.64
